Experimental data published in patent US20260234164A1, “BIPHENYL COMPOUND AS IMMUNOMODULATOR, PREPARATION METHOD THEREFOR AND USE THEREOF” (SHENZHEN CHIPSCREEN BIOSCIENCES CO., LTD., priority 2021, published 2026).

Key:
[1] = clinical studies; cited from earlier work
[2] = Pharmacokinetic assay after repeated oral administration; format: in vivo, B-hPD-1/hPD-L1 mice; settings: female, B-hPD-1/hPD-L1, mouse; plasma, 50 mg/kg oral once a day, after administration on the 18th day
Experimental: Twenty-four female B-hPD-1/hPD-L1 mice aged 6-8 weeks were purchased from Biocytogen Jiangsu Gene Biotechnology Co., Ltd. The mice were randomly divided into 4 groups, 6 mice in each group. The test compounds were prepared in a vehicle containing 5% DMSO, 60% PEG400 and 35% purified water, including I-1 and 3 control molecules Example 17, Compound 14 (INCB086550), and Example 180. The compounds were administered orally at 50 mg/kg, once a day. The blood was collected alternately through the fundus venous plexus after the administration on the 18th day. The blood collection time points were 15 min, 30 min, 1 h, 2 h, 4 h, 8h, 24 h and 32h. About 0.1 mL of blood was collected in a centrifuge tube (anticoagulated with sodium heparin), and centrifuged at 5000 rpm for 5 min. Then the plasma was separated, and frozen at −20° C. for later detection. After the plasma samples were processed, the concentration of the compounds in the plasma was determined by liquid chromatography-mass spectrometry (LC-MS/MS). The pharmacokinetic parameters were calculated using Phoenix WinNonlin 7.0.

[3] = Tumor tissue distribution assay in MC38-PD-L1 tumor-bearing mice; format: in vivo, B-hPD-1/hPD-L1 humanized mice; settings: 50 mg/kg oral once/day; for concentration at 4 h / concentration at 24 h: female, B-hPD-1/hPD-L1 humanized, mouse, tumor tissue
Text: 16 B-hPD-1/hPD-L1 humanized female mice, aged 6-8 weeks were purchased from Biocytogen Jiangsu Gene Biotechnology Co., Ltd. After 1 week of adaptation, the mice were subcutaneously inoculated with MC38-PD-L1 cells at 2×10^6 cells/site. After the tumor grew to about […], the mice were divided into 4 groups, 4 mice in each group. The test compounds were formulated in a vehicle containing 5% DMSO, 60% PEG400 and 35% purified water, including I-1 and 3 control molecules Example 17, Compound 14 (INCB086550), and Example 180. The compounds were orally administered at 50 mg/kg, once/day. The blood and tumor tissue were collected 4 h and 24 h after administration on the 18th day. A certain amount of tissue was weighed, and added with phosphate-buffered saline (PBS) solution for homogenization. After the sample was processed, it was analyzed by LC-MS/MS to determine the concentration of the compound in plasma and tissue.

[4] = system: PD-1/PD-L1-mediated T cell activation inhibitory signal; experiment: CHO-PD-L1-CD3L / Jurkat-PD-1-NFAT co-culture luciferase reporter assay; format: cell-based; settings: Homo sapiens, co-culture 6 h, read-out: EC50 blocking PD-1/PD-L1-mediated T cell activation inhibitory signal
Experimental: In order to detect the effect of the interaction between PD-1 and PD-L1 on T cell activation signals in the immune response, CHO-PD-L1-CD3L cells stably expressing human PD-L1 molecules and anti-CD3 single-chain antibody (ScFv) and Jurkat-PD-1-NFAT cells stably expressing human PD-1 molecule and NFAT reporter gene were constructed. When the two kinds of cells were co-incubated, the binding of anti-CD3ScFv on the surface of CHO cells and the membrane CD3 molecules of Jurkat cells would transmit an activation signal to Jurkat cells, but simultaneously, the binding of PD-L1 on the surface of CHO cells and PD-1 molecules on the surface of Jurkat cells would transmit an inhibitory signal inward to prevent expression of the luciferase reporter gene. When immune checkpoint antibodies or small molecule inhibitors were added, the binding of PD-1 and PD-L1 was blocked, the NFAT pathway activated by T cell activation signal mediated by cross-linking of CD3ScFv antibody and CD3 was no longer affected by the inhibitory signal, and the downstream luciferase reporter gene started to be expressed. A chemiluminescent signal proportional to reporter gene activation was detected by adding a catalytic substrate.
CHO-PD-L1-CD3L cells expressing human PD-L1 molecule and anti-CD3 single-chain antibody (ScFv) and Jurkat-PD-1-NFAT cells stably expressing human PD-1 molecule and NFAT reporter gene were independently constructed and provided by Dr. Chen Bo (KeyMed Bioscience (Chengdu) Co., Ltd.). Puromycin (Cat #540411) and Hygromycin B (Cat #V900372) for stable culture of transfected cells were purchased from Sigma, PMA (Cat #P1585) was purchased from Sigma, anti-human PD-L1 antibody (Cat #GMP-A066) was purchased from Novoprotein Company. Luciferase substrate solution (Cat #E6485) and luciferase-specific cell lysis solution 5× (Cat #E1531) were purchased from Promega. Fluorescence detection instrument Tecan (Spark 10M) was purchased from Switzerland Tecan Company.
(1) The day before the experiment, 100 μL of CHO-PD-L1-CD3L cells were inoculated in each well of a 96-well cell culture plate (about 4×10^4 cells/well) with a medium of DMEM/F12 containing 10% FBS, 8 μg/mL puromycin and 200 μg/mL hygromycin B, and cultured overnight at 37° C.
(2) The test compounds were diluted with 0.1% PBST into different concentration gradients, added into 96-well plates, and pre-incubated for 30 min. Jurkat-PD-1-NFAT cell count was adjusted to 2×10^5 cells/mL with the RPMI 1640 complete medium containing 10% FBS, […]8 μg/mL puromycin and 200 μg/mL hygromycin B. 100 ng/mL PMA (the stock solution was prepared with DMSO to a concentration of 10 mg/mL) was added to amplify T cell activation signal. 100 μL of the above Jurkat-PD-1-NFAT cells was added to each well of the 96-well plate for co-culture.
(3) When detecting the reaction, a control group was provided, including a solvent control without adding test compounds and a positive control with addition of anti-human PD-1 antibody as the experimental system. All detections were performed with duplicates.
(4) After continuous incubation at 37° C. for 6 h, 40 μL of 5× cell lysate was directly added, and mixed well. The plate was placed at room temperature for 10 min to completely lyse the cells. 50 μL of the lysed cell solution was transferred to a fluorescence detection plate, and added with 30 μL of luciferase substrate solution. The chemiluminescence detection program on the fluorescence detector was immediately selected for detection.
(5) The inhibition rate of T cell activation signal at the cellular level of the test compounds was calculated as follows: Inhibition rate of T cell activation signal (%)=(the original value of chemiluminescence in the detection well−solvent control)/(the highest original value of chemiluminescence detected in the compound detection well−solvent control)×100%. […]

[5] = 4 h after administration on the 18th day
[6] = 24 h after administration on the 18th day

Compound	AUC(0-t) [2] [ng·h/mL]	MRT [2] [h]	half-life [2] [h]	Ratio of I-1 to control molecule (tumor tissue concentration) [3, 5]	Ratio of I-1 to control molecule (tumor tissue concentration) [3, 6]	concentration at 4 h [3, 5] [ng/g]	concentration at 24 h [3, 6] [ng/g]	EC50 [4] [nM]	T1/2 [1] [h]
pembrolizumab: PD-1/PD-L1 antibody drug									600
nivolumab: PD-1/PD-L1 antibody drug									605
[2H]c1c([2H])c(NC(=O)c2nc3c(n2C)CCN(CCC24CCC(COC)(CC2)C4)C3)c(F)c(-c2c([2H])c([2H])c([2H])c(NC(=O)c3nc4c(n3C)CCN(CCC35CCC(C(=O)O)(CC3)C5)C4)c2Cl)c1[2H] [Compound I-15, 4-(2-(2-((2-chloro-2′-fluoro-3′-(5-(2-(4-(methoxymethyl)bicyclo[2.2.1]heptane-1-yl)ethyl)-1-methyl-4,5,6,7-tetrahydro-1H-imidazo[4,5-c]pyridine-2-carboxamido)-[1,1′-biphenyl]-3-yl-4,4′,5,5′,6,6′-d6)carbamoyl)-1-methyl-1,4,6,7-tetrahydro-5H-imidazo[4,5-c]pyridin-5-yl)ethyl)bi cyclo[2.2.1]heptane-1-carboxylic acid]								18.9	
atezolizumab: PD-1/PD-L1 antibody drug									648
Cc1c(Nc2nccc3cc(CN4CC[C@@H](O)C4)cnc23)cccc1-c1cccc(-c2nc3cc(CN4CC[C@@H](C(=O)O)C4)cc(C#N)c3o2)c1C [Compound 14 (INCB086550)]	15800	5.1	3.9	5.9	7.6	6600	3600		

More lines, main results first:

AUC(0-t) [2] [ng·h/mL]	MRT [2] [h]	half-life [2] [h]	Ratio of I-1 to control molecule (tumor tissue concentration) [3, 5]	Ratio of I-1 to control molecule (tumor tissue concentration) [3, 6]	concentration at 4 h [3, 5] [ng/g]	concentration at 24 h [3, 6] [ng/g]	EC50 [4] [nM]	Compound	T1/2 [1] [h]
67400	5.8	4.2	7.8	27.2	5000	1000		Cn1c(C(=O)Nc2cccc(-c3cccc(NC(=O)c4nc5c(n4C)CCN(CCC46CCC(C(=O)O)(CC4)C6)C5)c3Cl)c2Cl)nc2c1CCN(CCC13CCC(C(=O)O)(CC1)C3)C2 [Example 17]	
33700	5.6	3.8	8.7	30.2	4500	900		Cn1c(C(=O)Nc2cccc(-c3cccc(NC(=O)c4nc5c(n4C)CCN(CC46CCC(C(=O)O)(CC4)C6)C5)c3Cl)c2Cl)nc2c1CCN(CCO)C2 [Example 180]	
